Here are results for eleven compounds from ChEMBL document CHEMBL1131738, “Rational design of N-[2-(2,5-dimethoxyphenylethyl)]-N'-[2-(5-bromopyridyl)]-thiourea (HI-236) as a potent non-nucleoside inhibitor of drug-resistant human immunodeficiency virus” (Bioorg Med Chem Lett, 1999).

SMILES strings stand for the structures.

Assay [1] is described as follows: Inhibitory activity of compound on p24 production in peripheral blood mononuclear cells infected with HIV strain RT-MDR. Type of assay: functional. Conditions: Homo sapiens.
Assay [2] in a line: Inhibitory activity of compound on p24 production in peripheral blood mononuclear cells infected with HIV strain HTLV IIIB wild type. Type of assay: functional. The following applies: Homo sapiens.
Assay [3] addresses Human immunodeficiency virus type 1 reverse transcriptase (Human immunodeficiency virus 1, UniProt Q72547). Kind of assay: Inhibition of purified recombinant HIV-1 reverse transcriptase.
Assay [4] is described as follows: Inhibitory activity of compound on p24 production in peripheral blood mononuclear cells infected with HIV strain A17 variant. Type of assay: functional. Conditions: Homo sapiens.
Assay [5] is described as follows: Inhibitory activity of compound on p24 production in peripheral blood mononuclear cells infected with HIV strain A17. Type of assay: functional. Conditions: Homo sapiens.
Assay [6] is described as follows: Inhibitory activity of compound won p24 production in peripheral blood mononuclear cells infected with HIV strain HTLV IIIB wild type. Type of assay: functional. Conditions: Homo sapiens.

Usually IC50 stands for the concentration needed to halve the response being measured.

For the compound `S=C(NCCc1ccccc1Cl)Nc1ccc(Br)cn1`, the values for the IC50 in assay [1], in assay [2] and in assay [3] were 4 nM, under 10 nM and 700 nM, respectively.

In the case of `Fc1ccc(CCNC(=S)Nc2ccc(Br)cn2)cc1`, in assay [3], the IC50 was determined as 6400 nM.

For `S=C(NCCC1=CCCCC1)Nc1ccc(Cl)cn1`, the values for the IC50 in assay [2] and in assay [3] were 3 nM and 3700 nM, respectively.

For `S=C(NCCc1ccccn1)Nc1ccc(Br)cn1` [TROVIRDINE], the IC50 in assay [1] came to 20 nM; in assay [2], 7 nM.

For the compound `Fc1cccc(CCNC(=S)Nc2ccc(Br)cn2)c1`, the results for the IC50 in assay [1], in assay [2] and in assay [3] were 20 nM, under 1 nM and 700 nM, respectively.

As for `Fc1ccccc1CCNC(=S)Nc1ccc(Br)cn1`, the IC50 in assay [1] was 5 nM; in assay [4], 41000 nM; in assay [5], 200 nM; in assay [2], under 10 nM; in assay [3], 600 nM.

As to `CCOCn1c(Cc2ccccc2)c(C(C)C)c(=O)[nH]c1=O` [EMIVIRINE], the values for the IC50 in assay [1] and in assay [3] were 300 nM and 800 nM, respectively.

As to `CC(C)Nc1cccnc1N1CCN(C(=O)c2cc3cc(NS(C)(=O)=O)ccc3[nH]2)CC1` [DELAVIRDINE], the IC50 in assay [1] is 400 nM; in assay [4], over 100000 nM; in assay [5] it was 50000 nM; in assay [2], 9 nM.

As to `COc1ccc(OC)c(CCNC(=S)Nc2ccc(Br)cn2)c1`, the IC50 in assay [1] is 5 nM; in assay [4] it was 11000 nM; in assay [5] it was 100 nM; in assay [2], under 1 nM; in assay [3] it was 100 nM.

As to `Cc1cn([C@H]2C[C@H](N=[N+]=[N-])[C@@H](CO)O2)c(=O)[nH]c1=O` [ZIDOVUDINE], the IC50 in assay [1] is 150 nM; in assay [4] it was 4 nM; in assay [5], 6 nM; in assay [2], 4 nM.

As to `Cc1ccnc2c1NC(=O)c1cccnc1N2C1CC1` [NEVIRAPINE], the IC50 is 5000 nM in assay [1], 34 nM in assay [6], over 100000 nM in assay [4] and over 100000 nM in assay [5].
